Like-named read-outs stand apart in the source and are kept apart here. Positions of bridges follow the written chain, without caps; N, C: chain ends. Non-standard residues stand in square brackets, D forms with d. Residues, ends and D or L forms follow the SMILES beside them. Chains are numbered I, II in the order given. *: point of attachment. PEG28 = NCCOCCOCCOCCOCCOCCOCCOCCOCCOCCOCCOCCOCCOCCOCCOCCOCCOCCOCCOCCOCCOCCOCCOCCOCCOCCOCCOCCOCCC(=O)O; Tyr(3-NO2) = N[C@@H](Cc1ccc(O)c([N+](=O)[O-])c1)C(=O)O; Biotin = O=C1N[C@H]2[C@H](CS[C@H]2CCCCC(=O)*)N1; Hyp = O=C(O)[C@@H]1C[C@@H](O)CN1; For = O=C*
Assays:
integrin α3 = target: T1, integrin α3 (Homo sapiens, UniProt P26006); assay: Displacement of anti-CD49c-PE conjugate (flow cytometry); assay type: binding; conditions: increasing peptide concentrations, 2 mM MnCl2, 30 min on ice, flow cytometry (PE channel)
T1 construct: endogenous in cells
T1 sequence (P26006 33-872 limits assumed): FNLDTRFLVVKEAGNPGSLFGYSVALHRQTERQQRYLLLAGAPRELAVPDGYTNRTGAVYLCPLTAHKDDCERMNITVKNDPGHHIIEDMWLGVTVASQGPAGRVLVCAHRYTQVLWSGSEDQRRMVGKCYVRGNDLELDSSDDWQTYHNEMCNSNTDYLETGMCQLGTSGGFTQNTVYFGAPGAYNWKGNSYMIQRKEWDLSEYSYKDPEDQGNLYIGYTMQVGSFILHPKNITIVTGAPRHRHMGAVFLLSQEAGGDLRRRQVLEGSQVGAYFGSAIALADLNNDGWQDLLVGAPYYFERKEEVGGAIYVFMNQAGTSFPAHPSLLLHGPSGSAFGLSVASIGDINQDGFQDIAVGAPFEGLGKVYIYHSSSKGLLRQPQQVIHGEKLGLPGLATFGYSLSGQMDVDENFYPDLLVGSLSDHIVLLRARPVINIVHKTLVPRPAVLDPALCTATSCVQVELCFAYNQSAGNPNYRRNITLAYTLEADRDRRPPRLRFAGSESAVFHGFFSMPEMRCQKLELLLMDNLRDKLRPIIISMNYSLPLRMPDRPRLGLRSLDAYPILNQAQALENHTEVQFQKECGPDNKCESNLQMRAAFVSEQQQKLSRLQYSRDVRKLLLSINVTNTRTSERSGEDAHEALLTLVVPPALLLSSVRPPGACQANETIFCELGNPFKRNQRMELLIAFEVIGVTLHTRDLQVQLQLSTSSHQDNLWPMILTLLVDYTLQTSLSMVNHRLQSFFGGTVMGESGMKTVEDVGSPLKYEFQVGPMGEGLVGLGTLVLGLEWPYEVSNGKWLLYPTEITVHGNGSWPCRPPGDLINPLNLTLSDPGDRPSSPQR
T1 sequence (P26006 876-1051 partner limits assumed): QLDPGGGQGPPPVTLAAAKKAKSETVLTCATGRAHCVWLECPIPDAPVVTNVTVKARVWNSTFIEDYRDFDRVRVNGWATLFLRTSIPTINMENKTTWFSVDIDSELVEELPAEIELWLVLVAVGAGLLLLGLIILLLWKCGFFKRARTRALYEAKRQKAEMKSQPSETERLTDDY
T1 sequence (P05556 21-798 partner): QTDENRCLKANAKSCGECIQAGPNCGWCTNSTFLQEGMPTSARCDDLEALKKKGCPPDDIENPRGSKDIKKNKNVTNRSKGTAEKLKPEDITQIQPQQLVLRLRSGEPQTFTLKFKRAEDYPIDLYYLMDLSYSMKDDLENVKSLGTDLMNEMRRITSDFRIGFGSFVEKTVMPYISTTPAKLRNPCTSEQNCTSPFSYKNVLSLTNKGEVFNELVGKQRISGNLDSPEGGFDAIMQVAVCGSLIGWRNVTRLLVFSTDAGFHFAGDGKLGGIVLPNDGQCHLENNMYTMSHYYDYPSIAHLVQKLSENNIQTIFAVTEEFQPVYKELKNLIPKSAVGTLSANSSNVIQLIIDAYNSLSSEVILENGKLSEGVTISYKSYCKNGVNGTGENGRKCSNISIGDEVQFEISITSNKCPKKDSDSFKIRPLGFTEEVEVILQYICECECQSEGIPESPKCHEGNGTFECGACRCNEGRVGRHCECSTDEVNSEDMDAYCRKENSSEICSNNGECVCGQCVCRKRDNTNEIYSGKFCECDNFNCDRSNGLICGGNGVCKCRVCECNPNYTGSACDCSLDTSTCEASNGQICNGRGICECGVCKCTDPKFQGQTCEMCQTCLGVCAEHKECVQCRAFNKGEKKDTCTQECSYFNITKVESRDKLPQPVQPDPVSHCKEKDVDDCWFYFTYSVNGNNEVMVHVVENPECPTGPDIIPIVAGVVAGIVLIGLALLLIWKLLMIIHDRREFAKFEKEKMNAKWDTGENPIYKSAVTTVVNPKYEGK

MDA-MB-231 = assay: Flow cytometry binding to cells; design: key: ++: strong binding; +: m edium binding; +/-: weak or heterogeneous binding; -: no binding; conditions: Table S1, human, 1 µM biotinylated peptide, 2 mM MnCl2, on ice
H MC-1 = assay: Flow cytometry binding to cells; conditions: Table S1, human, 1 µM biotinylated peptide, 2 mM MnCl2, on ice; also: key: ++: Strong binding; +: medium binding; +/−: weak binding; −: no binding
L-929 = conditions: Table S1; mouse; flow cytometry, 1 µM biotinylated peptide, 2 mM MnCl2, on ice
Description: (§26) from DSMZ or LGC and cultured according to the distributors’ guidelines. Human, murine or
(§27) guinea pig leukocytes or macrophages were isolated and cultured as described below. Cells
(§28) growing in monolayers were detached using trypsin/EDTA and then re- suspended in complete
(§29) culture medium. After washing with washing buffer (W B: 0.9% NaCl, 10 mM Hepes, pH 7.3) at
(§30) 4°C, cells were re-suspended at 2x10^6 cells/ml in peptide blocking b uf f er ( PBB: 0.9% NaCl,
(§31) 10 m M H epes, pH 7.3, 5 m M KCl , 3% BSA, 5% FCS) and incubated for 10 minutes on ice
(§32) concentration in PBB were added to equal volumes of aliquots of 1x10^5 cells, and were
(§33) incubated f or 30 min on ice with repeated shaking to keep the cells in suspension. Except
(§34) three times wit h 1 ml W B, followed by incubation with streptavidin labeled wit h PerCP-Cy5.5
(§35) (BD Biosciences, 200 µg/ml; diluted 1:400 in PBB) for 15 min on ice. After one additional
(§36) wa s h ing step with phosphate- buffered saline (PBS) at 4°C, samples were re-suspended in
(§37) PBS with Hoechst 33258 solution (0.5 µg/ml) and analyzed using a F ACS Canto system ( at
(§38) least 1x10^4 cells per sample were counted). Evaluations were performed using FloJo software. […]
(§39) indicated cases the geometrical mean f luorescence was recorded. […]
(§40) which half-maximum binding intensity was reached (KD) was calculated using Origin 9.0 […]

NIH-3T3 = conditions: mouse, flow cytometry, 1 µM biotinylated peptide
Description: as §26, §27, §28, §29, §30, §31, §32, §33, §34, §35, §36, §37
least 1x10^4 cells per sample were counted). Evaluations were performed using FloJo software.
W hole cells were gated i n a FSC/SSC plot and live gating was based on Hoechst exclusion.
After gating out debris, aggregates and dead cells, overlay histograms in the PerCP-Cy5.5
indicated cases the geometrical mean f luorescence was recorded.
For determining binding affinity, a rang e of concentrations of the biotinylated compound was
tested and the f luorescent signals were plotted against concentration. The concentration at
which half-maximum binding intensity was reached (KD) was calculated using Origin 9.0
sof tware and a “one site specif ic binding” fit (y =(Bmax* x) /(KD+x) ).
f luorescent signals were plotted against competitor concentration. The concentration at which

K562 = assay: Flow cytometry binding to cells; design: species or system Human; conditions: 1 µM biotinylated peptide; also: key: ++: Strong binding; +: medium binding; +/−: weak binding; −: no binding
GPC-16 = assay: Flow cytometry binding to cells; design: key to the marks not given beside the values; conditions: 1 µM biotinylated peptide
PC-3 or A431 cells = conditions: 37 °C, streptavidin staining, flow cytometry
Description: washed as described above and then re-suspended in Eagle’s minimum essential medium
incubated on ice or at 37°C. At different time points after washing 50 µl samples were taken
and added to 50 µl of Streptavidin- PerCP-Cy5.5 (diluted 1:200), incubated on ice f or 15 min,
washed with PBS, and analyzed in PBS with Hoechst solution. Fluorescent signals were
plotted against time between washing and streptavidin addition.
over time after incubation on ice and at 37°C.
labeled streptavidin as described previously f or flow cytometry assays.

4T1 = conditions: Table S1; mouse; flow cytometry, 1 µM biotinylated peptide, 2 mM MnCl2, on ice
Description: as §26, §27, §28, §29, §30, §31, §32, §33, §34, §35, §36, §37, §38, §39, §40

primary monocytes = assay: Flow cytometry binding to cells; conditions: 1 µM biotinylated peptide; also: key: ++: Strong binding; +: medium binding; +/−: weak binding; −: no binding
U-87MG = assay: Flow cytometry binding to cells; design: key: ++: strong binding; +: m edium binding; +/-: weak or heterogeneous binding; -: no binding; conditions: Table S1, human, 1 µM biotinylated peptide, 2 mM MnCl2, on ice
A431 = assay: Flow cytometry binding to cells; design: species or system Human; key to the marks not given beside the values; conditions: 1 µM biotinylated peptide
HUVEC = assay: Flow cytometry binding to cells; design: species or system Human; conditions: 1 µM biotinylated peptide
primary granulocytes = assay: Flow cytometry binding to cells; conditions: 1 µM biotinylated peptide; also: key: ++: Strong binding; +: medium binding; +/−: weak binding; −: no binding
primary lymphocytes = assay: Flow cytometry binding to cells; conditions: 1 µM biotinylated peptide; also: key: ++: Strong binding; +: medium binding; +/−: weak binding; −: no binding
primary leukocytes = assay: Flow cytometry binding to cells; conditions: 1 µM biotinylated peptide; also: key: ++: Strong binding; +: medium binding; +/−: weak binding; −: no binding
PC-3 = assay: Flow cytometry binding to cells; design: species or system Human; key to the marks not given beside the values; conditions: 1 µM biotinylated peptide
primary macrophages 7d = assay: Flow cytometry binding to cells; conditions: 1 µM biotinylated peptide; also: key: ++: Strong binding; +: medium binding; +/−: weak binding; −: no binding
[1] = system: primary macrophages 7 days; assay: Flow cytometry binding to cells; conditions: 1 µM biotinylated peptide; as to binding to macrophages 7 days: key: ++: strong binding; +: m edium binding; +/-: weak or heterogeneous binding; -: no binding
HT-29 = assay: Flow cytometry binding to cells; design: key: ++: strong binding; +: m edium binding; +/-: weak or heterogeneous binding; -: no binding; conditions: Table S1, human, 1 µM biotinylated peptide, 2 mM MnCl2, on ice
HeLa = system: HeLa; design: key to the marks not given beside the values; conditions: Table S1; human; flow cytometry, 1 µM biotinylated peptide, 2 mM MnCl2, on ice
E0771 = conditions: Table S1; mouse; flow cytometry, 1 µM biotinylated peptide, 2 mM MnCl2, on ice
Description: as §26, §27, §28, §29, §30, §31, §32, §33, §34, §35, §36, §37, §38, §39, §40

mice = assay: Immune activation assays (Figure S2C,D); assay type: cell-based, Mouse; conditions: compared with human cells
Description: (§1) Human leukocytes were re-suspended in Hank ’s Buffered Saline Solution (HBSS, without
(§2) Ca2+, Mg 2+) with 10 mM Hepes pH 7.3 and 0.3% BSA at 10^7 cells/ml. Cells were pre-warmed
(§3) at 37°C for 20 min. After adding the effector dilutions in the lower compartment of 24-well plates
(§4) (800 µl/well), a Millicell culture plate insert with 5 µm pore size was placed in each well, f ollowed
(§5) by immediate addition of 200 µl (2 million) leuk ocytes. In one well, the cells were added without
(§6) a f ilter insert, allowing determination of the input number. The plate was incubated at 37°C and
(§7) 5% CO2 f or 45 min. 5 mM EDTA solution was added and the plate was incubated f or another
(§8) 10 min at 37 °C. […]
(§9) determined using a Neubauer chamber, or the numbers of transmigrated monocytes ,
(§10) granulocytes and lymphocytes were determined by flow cytometry (discriminating c e ll […]
(§11) 37°C and 5% CO2. Macrophages on the bottom side of the f ilter were counted. […]
(§12) J software, means and standard deviations were calculated and presented as absolute […]
(§13) Activation of the oxidative burst (phagocyte NADPH oxidase) was measured using a […]
(§14) 150 µl were stored at - 80 °C until cytokine levels were measured with commercially available
(§15) ELISA kits (Ready-set-go system, eBiosciences). […]
(§16) were measured and calculated based on the standards included wit hin the ELISA kits and as […]
(§17) analysis. Measured cytok ine levels were normalized to 1 (the average of the two unstimulated

human granulocytes = assay: Oxidative burst (dihydro-rhodamine oxidation) assay; assay type: cell-based; conditions: compared with the non-PEGylated effector
Description: Activation of the oxidative burst (phagocyte NADPH oxidase) was measured using a
dihydrorhodamine (DHR, Molecular Probes) oxidation assay, based on a method described
previously1. In brief, 200 µl samples of human, murine or guinea pig leukocytes (1.25x 106
cells/ml in HHBS + 10 mM Hepes, pH 7.3, 0.3% BSA and 5 mM EDTA) were loaded with DHR
and catalase (Sigma-Aldrich) and cytochalasin B (Sigma-Aldrich) were added. Cells were pre-
incubated at 37°C for 10 min followed by the addition of 50 µl of effector dilutions (5x the
intended concentration) in the same buffer and another 15 min of incubation at 37°C. Phorbol
(§18) 12- m yr ist oyl 13-acetate (P MA , 3 µg/ml) was used as a positive control. All samples were f ixed
(§19) in 1% formaldehyde Hoechst 33258 solution (0.5 µg/ml) was added and cells were k ept on ice
(§20) until analysis using a FACS Canto system. After gating for live cells and granulocytes (human
(§21) cells) or non- lymphocytes (murine cells) in the FSC/SSC plot, rhodamine-positive cells were
(§22) identif ied in a PE/SSC plot, using an unstimulated sample as a reference.
(§23) Human monocytes, after an overnight pre- culture, were incubated f or 6 more hours in 1 ml
(§24) RPMI+10% FCS containing 100 nM F2- 2PEG, 0.1 ng/ml LPS (Sigma- Aldrich), or no stimulus.
(§25) All experiments were performed in duplicates. […]

human leukocytes = assay: Chemotaxis assay; assay type: cell-based; conditions: compared with the non-PEGylated effector
Description: as §1, §2, §3, §4, §5, §6, §7, §8
Phorbol
as §18, §19, §20, §21, §22, §23, §24, §25

guinea pigs = assay: Immune activation assays (Figure S2C,D); assay type: cell-based, Guinea pig; conditions: compared with human cells
Description: as §1, §2, §3, §4, §5, §6, §7, §8, §9, §10, §11, §12, §13, §14, §15, §16, §17

[2] = 2 mM MnCl2, 30 min on ice, streptavidin-PerCP-Cy5.5
[3] = Table S1, human, 2 mM MnCl2, on ice
[4] = human, 2 mM MnCl2, 30 min on ice, streptavidin-PerCP-Cy5.5
[5] = Table S1, mouse, 2 mM MnCl2, on ice
[6] = mouse, 2 mM MnCl2, 30 min on ice, streptavidin-PerCP-Cy5.5

NC(=O)C[C@@H]1NC(=O)[C@@H]2C[C@@H](O)CN2C(=O)CNC(=O)[C@H](Cc2ccc(O)c([N+](=O)[O-])c2)NC(=O)CNC(=O)[C@@H](CC(=O)O)NC(=O)[C@H](N)CSSC[C@H](C(=O)O)NC1=O [B9] (H-[dC][dD]G[Tyr(3-NO2)]G[Hyp]N[dC]-OH; disulfide 1-8)
competes: displacement of anti-CD49c-PE conjugate (integrin α3)

CC[C@H](C)[C@H](NC(=O)[C@H](CCSC)NC(=O)CCCC[C@@H]1SC[C@@H]2NC(=O)N[C@@H]21)C(=O)N[C@@H](Cc1ccccc1)C(=O)N[C@@H](CC(C)C)C(=O)NCC(=O)NCC(=O)N[C@@H](CCCCNC(=O)CCOCCOCCOCCOCCOCCOCCOCCOCCOCCOCCOCCOCCOCCOCCOCCOCCOCCOCCOCCOCCOCCOCCOCCOCCOCCOCCOCCOCCNC(=O)[C@H]1CSSC[C@@H](N)C(=O)N[C@H](CC(=O)O)C(=O)NCC(=O)N[C@@H](Cc2ccc(O)c([N+](=O)[O-])c2)C(=O)NCC(=O)N2C[C@H](O)C[C@H]2C(=O)N[C@@H](CC(N)=O)C(=O)N1)C(=O)N[C@@H](CCCCNC(=O)CCOCCOCCOCCOCCOCCOCCOCCOCCOCCOCCOCCOCCOCCOCCOCCOCCOCCOCCOCCOCCOCCOCCOCCOCCOCCOCCOCCOCCNC(=O)[C@H]1CSSC[C@@H](N)C(=O)N[C@H](CC(=O)O)C(=O)NCC(=O)N[C@@H](Cc2ccc(O)c([N+](=O)[O-])c2)C(=O)NCC(=O)N2C[C@H](O)C[C@H]2C(=O)N[C@@H](CC(N)=O)C(=O)N1)C(=O)O [Biotin-Y9] (I: H-[dC][dD]G[Tyr(3-NO2)]G[Hyp]N[dC][PEG28] / II: H-[dC][dD]G[Tyr(3-NO2)]G[Hyp]N[dC][PEG28] / III: Biotin-MIFLGGKK-OH; disulfide I:1-I:8, II:1-II:8; amide I:C-III:7, II:C-III:8)
-: binding to H MC-1 (H MC-1) | binding to L-929 (L-929) | binding to K562 (K562; [3]) | binding to fresh monocytes (primary monocytes; [3]) | binding to fresh granulocytes (primary granulocytes; [3]) | binding to fresh lymphocytes (primary lymphocytes; [3]) | binding to leukocytes (primary leukocytes; [5]) | binding to macrophages 7d (primary macrophages 7d; [5])
++: binding to MDA-MB-231 (MDA-MB-231) | binding to GPC-16 (GPC-16; Table S1, guinea pig, 2 mM MnCl2, on ice) | binding to GPC-16 (GPC-16; guinea pig, 2 mM MnCl2, 30 min on ice, streptavidin-PerCP-Cy5.5) | binding to 4T1 (4T1) | binding to U-87MG (U-87MG) | binding to A431 (A431; [2]) | binding to A431 (A431; [3]) | binding to HUVEC (HUVEC; [2]) | binding to HUVEC (HUVEC; [3]) | binding to PC-3 (PC-3; [2]) | binding to PC-3 (PC-3; [3]) | binding to HT-29 (HT-29) | binding to HeLa (HeLa)
−: binding to K562 (K562; [2]) | binding to primary monocytes (primary monocytes; [4]) | binding to primary granulocytes (primary granulocytes; [4]) | binding to primary lymphocytes (primary lymphocytes; [4]) | binding to primary leukocytes (primary leukocytes; [6]) | binding to primary macrophages 7d (primary macrophages 7d; [6])
+/−: binding to primary macrophages 7 days [1, 4]
+/-: binding to macrophages 7 days [1, 3]
+: binding to NIH-3T3 (NIH-3T3; Table S1, 2 mM MnCl2, on ice) | binding to NIH-3T3 (NIH-3T3; [2]) | binding to E0771 (E0771)
at least 15 minutes: t1/2 on cell membranes (PC-3 or A431 cells)

CSCC[C@H](NC=O)C(=O)N[C@@H](CC(C)C)C(=O)N[C@@H](Cc1ccccc1)C(=O)NCC(=O)NCC(=O)N[C@@H](CCCCNC(=O)CCOCCOCCOCCOCCOCCOCCOCCOCCOCCOCCOCCOCCOCCOCCOCCOCCOCCOCCOCCOCCOCCOCCOCCOCCOCCOCCOCCOCCN)C(=O)N[C@@H](CCCCNC(=O)CCOCCOCCOCCOCCOCCOCCOCCOCCOCCOCCOCCOCCOCCOCCOCCOCCOCCOCCOCCOCCOCCOCCOCCOCCOCCOCCOCCOCCN)C(=O)O [F1-2PEG] (For-MLFGGK(PEG28)K(PEG28)-OH)
two: loss of potency for neutrophil activation (superoxide production) when linked to the PEG chains (human granulocytes) | loss of potency to induce chemotaxis when linked to the PEG chains (human leukocytes)
less potent immune activators: immune activation in mice (mice) | immune activation in guinea pigs (guinea pigs)
